Laboratory results from publication PMC11597478, “Kinin B1- and B2-Receptor Subtypes Contract Isolated Bovine Ciliary Muscle: Their Role in Ocular Lens Function and Intraocular Pressure Reduction” (Pharmaceuticals, 2024).
Like-named read-outs stand apart in the source and are kept apart here. Peptide text beside a SMILES is read from it.

What was measured:
[1] = system: human umbilical vein; settings: B2-receptor-mediated contraction; ref [1],[2],[3],[18],[20],[23]; read-out: Functional potency, HUV, HP Site; cited from earlier work
Text: Table 2 Ability of BK and Des-Arg^9-BK to Contract Various Tissues of Different Species or to Mobilize Intracellular Ca^2+ in human Ocular Cells. | column: HUV

[2] = system: rat ileum; settings: B1-receptor in rat ileum, contraction; ref [25]; read-out: Functional potency, RI, HP Site; cited from earlier work
Text: Table 2 Ability of BK and Des-Arg^9-BK to Contract Various Tissues of Different Species or to Mobilize Intracellular Ca^2+ in human Ocular Cells. | column: RI || In the current studies, both BK and Des-Arg^9-BK contracted the BCM in a biphasic fashion, indicating the involvement of both B1 and B2 receptors in the smooth muscle contraction process. Other agonist peptides related to BK also elicited similar profiles of contractility, thereby substantiating the effects of BK and Des-Arg^9-BK in this specific tissue. Furthermore, the role of both kinin receptor subtypes being responsible for contracting BCM in vitro was confirmed by sequentially recording the functional responses of the tissue in the presence of B1- and B2-receptor antagonists in numerous ...

[3] = system: rat uterus strips; settings: B2-receptor-mediated contraction; ref [1],[2],[3],[18],[20],[23]; read-out: Functional potency, RUT, HP Site; cited from earlier work
Text: Table 2 Ability of BK and Des-Arg^9-BK to Contract Various Tissues of Different Species or to Mobilize Intracellular Ca^2+ in human Ocular Cells. | column: RUT

[4] = system: guinea pig trachea; settings: tissue contraction, ref [17],[18], cited from earlier work
Text: Table 2 Ability of BK and Des-Arg^9-BK to Contract Various Tissues of Different Species or to Mobilize Intracellular Ca^2+ in human Ocular Cells. | column: GPT

[5] = system: rat whole bladder; settings: B2-receptor-mediated contraction; ref [1],[2],[3],[18],[20],[23]; read-out: Functional potency, RWB, HP Site; cited from earlier work
Text: Table 2 Ability of BK and Des-Arg^9-BK to Contract Various Tissues of Different Species or to Mobilize Intracellular Ca^2+ in human Ocular Cells. | column: RWB

[6] = system: guinea pig taenia caeci; settings: tissue contraction, ref [17],[18], cited from earlier work
Text: Table 2 Ability of BK and Des-Arg^9-BK to Contract Various Tissues of Different Species or to Mobilize Intracellular Ca^2+ in human Ocular Cells. | column: GPTC

[7] = system: recombinant B1 receptors expressed in host cells; settings: ref [1]; read-out: binding affinity Ki, recombinant B1 receptor (rabbit); cited from earlier work
[8] = system: bovine ciliary muscle (BCM) strips; assay: tissue or blood; type: cell-based
Protocol: The methods utilized in the current studies were adapted from Lograno and Romano [13] and Ohia et al., with some minor modifications. Fresh bovine eyeballs were obtained from a local abattoir (Fisher Ham and Meat Company, Houston, TX, USA) and transported to the laboratory in ice. Whole eyeballs were placed in warm oxygenated Krebs buffer solution for 30 min to ensure equilibration before dissection of the ciliary muscle. Briefly, the anterior segment was dissected out of whole eyeballs after an incision was made at the limbus. The anterior segment containing the cornea, anterior uvea, and lens was then inverted and the lens dislodged with a probe along with the attached vitreous humor. After removal of the vitreous humor and lens, the whole ciliary muscle (comprising both longitudinal and circular portions) was quickly isolated and dissected from the scleral spur and choroid. Muscle strips of 4–5 mm in length were cut and mounted in 25 mL organ baths containing oxygenated Krebs solution at 37 °C using a silk thread linked to an isometric strain gauge under a constant load of 1g tension. The tissues were then allowed to equilibrate for 30 min. Two ciliary muscle strips were prepared from each eyeball and four to eight strips were used for each series of experiments. The composition of the Krebs solution used (mM) was NaCl, 118; KCl, 4.8; CaCl2, 2.5; KH2PO4, 1.2; NaHCO3, 25; MgSO4, 2.0; dextrose, 10 and flurbiprofen, 0.003 (pH 7.4), all purchased from Sigma-Aldrich, St. Louis, MO (USA). […] A robust response was characterized as a single contraction that consistently yielded a tension in the muscle induced by carbachol of 0.15–0.3 gm. […] Tissue strips were then thoroughly rinsed with fresh buffer solution via a series of buffer additions and drainage activities to remove any residual muscarinic agonist, and the preload was readjusted prior to starting the actual study with kininergic ligands. Concentration–response studies employed 7–11 compound concentrations (0.1 nM to 10 µM) and data from multiple experiments were collected.
The contractile responses obtained were expressed as gram tension developed and as percentages of the maximum response of each of the compounds. GraphPad Prism 4.0 Software (San Diego, CA, USA) was then used to construct the concentration–response curves for the kinins and to derive the half-maximal stimulation potencies (EC50) of each phase of the bi-phasic curves and the values tabulated as previously described.

[9] = system: mouse bladder strips; settings: first value of cell, undefined kinin receptor, ref [10], read-out: Functional potency, M/H BSTP, HP Site (mouse); cited from earlier work
Text: (§1) Table 2 Ability of BK and Des-Arg^9-BK to Contract Various Tissues of Different Species or to Mobilize Intracellular Ca^2+ in human Ocular Cells. | column: M/H BSTP

[10] = system: human bladder strips; settings: second value of cell, undefined kinin receptor, ref [10], read-out: Functional potency, M/H BSTP, HP Site (human); cited from earlier work
Text: as §1

[11] = system: human ciliary muscle (hCM) cells; settings: [Ca2+]i mobilization, first value of cell; single B2-receptor subtype; ref [2],[8]; read-out: Functional potency, hCM Cells, HP Site; cited from earlier work
Text: (§2) Table 2 Ability of BK and Des-Arg^9-BK to Contract Various Tissues of Different Species or to Mobilize Intracellular Ca^2+ in human Ocular Cells. | column: hCM/hTM Cells

[12] = system: human trabecular meshwork (hTM) cells; settings: [Ca2+]i mobilization, second value of cell; single B2-receptor subtype; ref [2],[8]; read-out: Functional potency, hTM Cells, HP Site; cited from earlier work
Text: as §2

[13] = system: recombinant B1 receptors expressed in host cells; settings: ref [1]; read-out: binding affinity Ki, recombinant B1 receptor (mouse); cited from earlier work
[14] = system: recombinant B1 receptors expressed in host cells; settings: ref [1]; read-out: binding affinity Ki, recombinant B1 receptor (human); cited from earlier work

Structure (SMILES): N=C(N)NCCC[C@H](NC(=O)[C@H](Cc1ccccc1)NC(=O)[C@@H]1CCCN1C(=O)[C@H](CO)NC(=O)[C@H](Cc1ccccc1)NC(=O)CNC(=O)[C@@H]1CCCN1C(=O)[C@@H]1CCCN1C(=O)[C@@H](N)CCCNC(=N)N)C(=O)O [BK, Bradykinin] (H-RPPGFSPFR-OH; N-terminus and C-terminus assumed)
- EC50 [1]: 9 nM
- EC50 [2]: 4890 nM
- EC50 [3]: 3 nM
- EC50 ([4]; high potency site, read-out: Functional potency, GPT, HP Site): 20 nM
- EC50 ([4]; low potency site, read-out: Functional potency, GPT, LP Site): 4000 nM
- EC50 [5]: 90 nM
- EC50 ([6]; high potency site, read-out: Functional potency, GPTC, HP Site): 3 nM
- EC50 ([6]; low potency site, read-out: Functional potency, GPTC, LP Site): 1000 nM
- Ki [7]: 5000 nM
- EC50 [8]: 0.9 ± 0.3 nM
- share of the maximal contraction accounted for by the first high affinity/potency phase ([8]; biphasic C-R curve, BCM strips): 40–60%
- Max. Tension Generated During Contraction ([8]; freshly isolated BCM strips, Krebs 37 °C, 1 g load, 7–11 concentrations (0.1 nM–10 µM), mean ± SEM, 3–8 experiments): 0.07 ± 0.01 gm tension
- EC50 [9]: 1200 nM
- EC50 [10]: 5100 nM
- EC50 [11]: 2.4 nM
- EC50 [12]: 1 nM
- Ki [13]: 200 nM
- Ki [14]: 10000 nM
